Among the data in a melting point compilation (Tetko et al.; mined from patent text by program, amines drawn as free bases though some values may be those of a salt) are melting point values, retold here.

SMILES strings stand for the structures.

Usually melting point stands for the temperature of the solid-liquid transition.

`Cn1ncc(/C=C/C(=O)Nc2ccc(CCc3nccs3)cc2)c1-c1ccc(F)cc1` displayed a melting point of 201 to 202 °C.
The same measure for `CCOC(=O)NNc1ccc(-c2ccc(Br)cc2)nn1`: 190 to 192 °C; for `CCc1c(C(=O)C(N)=O)c2c(NCC(=O)O)cccc2n1Cc1ccccc1`: 151 to 157 °C; for `Cn1cc(Oc2ccccc2)c(=O)c(-c2ccc(Cl)c(C(F)(F)F)c2)c1`: 130 to 131 °C.
In the case of `CCc1cc(CC(=O)O)n(C)c1C(=O)c1ccc(Cl)cc1` it was 129 to 131 °C; in that of `O=C(O)Cc1ccc([N+](=O)[O-])c(C(=O)c2ccc(Cl)cc2)c1`, 182 to 183 °C; in that of `CN1CCN(C(=NO)C2=Nc3ccc(Cl)cc3C(c3ccccc3F)=NC2)CC1`, 198 to 200 °C.
In the case of `CC(=O)NCCOC(=O)C1CCn2c1cc(C)c2C(=O)c1ccc(Cl)n1C` (configuration not stated) it was 156 to 157 °C; in that of `CC(C)N(C(=O)C(Cc1ccc(C=O)cc1)NC(=O)OC(C)(C)C)C(C)C` (configuration not stated), 152 °C.
As to `Cc1cccc(OS(=O)(=O)c2ccc(N3CCN(C)C3=O)cc2)c1`, the melting point is 123 to 125 °C.
The same measure for `CCCc1c(OCCCCCOc2ccc(C(=O)Cc3ccccc3C(=O)O)cc2CCC(=O)O)ccc2c1OCCC2=O`: 178 to 182 °C.
In the case of `Cn1nc(-c2cc(C=O)c(Cl)cc2F)c(Cl)c1OC(F)F`, the melting point was in the range of 95 to 98 °C.
The same measure for `Nc1c(Cl)ncnc1N[C@@H]1C=C[C@H](CO)C1`: 144 to 146 °C; for `O=C(O)CC1C2=C(CCCC2)C(=O)N1c1ccc(Cl)cc1` (configuration not stated): 177 to 178 °C.
The same measure for `c1ccc(C(c2ccccc2)N2CCN(CCCSc3ccc4nncn4n3)CC2)cc1`: 79 to 80 °C; for `CC1(C)CC(=O)C(C)(C)c2cc(/C=C/c3ccc(C(=O)O)cc3)c(Cn3cccn3)cc21`: 265 to 266 °C; for `CC(C)c1cc(-c2ccccc2)nc(-c2ccc(F)cc2)c1CO`: 172 to 174 °C.
In the case of `O=C1OC2(CCN(CCOC(c3ccccc3)c3ccccc3)CC2)c2ccccc21` it was 99 to 100 °C; in that of `CC(C)n1cc(I)c2c(Cl)ncnc21`, 116 to 118 °C.
With `C#CC1(Oc2ccccc2[N+](=O)[O-])CCN(C(C)=O)CC1`, the melting point was 112 to 115 °C.
In the case of `Clc1ccc(-c2nc(Cl)c3ccccc3n2)cc1` it was 166 to 167 °C; in that of `CCn1c(=O)c2c(nc(/C=C/c3cc(OC)c(O)c(OC)c3)n2C)n(CC)c1=O`, 226 °C; in that of `COc1cccc([N+](=O)[O-])c1N`, 67 to 68 °C.
The same measure for `FC(F)(F)c1cc(C2CN(Cc3ccccc3)CO2)c2cccc(C(F)(F)F)c2n1` (configuration not stated): 108 to 109 °C.
In the case of `COc1ccc2c(c1)c1c(n2C(=O)c2ccc(F)cc2)CCC(C(=O)O)C1` (configuration not stated) it was 258 to 260 °C; in that of `CN1C(=O)Cn2cc(C(=O)NCc3ccc(F)cc3)c(=O)c3cc(CN4CCOCC4)cc1c32`, 222 to 224 °C; in that of `CNc1cccc(C(=O)O)c1C`, 165 to 167 °C.
As for `CC[C@@H]1NC(=O)C[C@@]1(O)C1CC1`, the melting point lay within 87 to 102 °C.
In the case of `CCOC(=O)N1CCN(C=C2C(=O)Nc3cc(OC)c(OC)cc32)CC1` it was 172 to 174 °C.
The same measure for `COc1cc(C)nc(NC(=O)NS(=O)(=O)c2cccc3c2C(Cl)=CC3)n1`: 168 to 172 °C; for `CCOC(=O)c1ccc(N(C=O)Cc2ccc(Cl)cc2)cc1`: 72 to 73 °C.
The molecule `O=C(c1ccc(OCC2CC2)c2oc3ccccc3c12)[NH+]([O-])c1ccncc1` (configuration not stated) gave a melting point of 266 to 268 °C.
The same measure for `N#CCCNN=Cc1ccc(C=NNCCC#N)cc1`: 111 to 113 °C; for `CCCOC(=O)n1cc2c(n1)NC(CCC)=C(C(=O)OCC)C2c1ccccc1Cl` (configuration not stated): 59 °C; for `CC12CCC3(CC1CCC1C2CCC2(C)C1CC(O)C2NC=O)OCCO3` (configuration not stated): 277 to 280 °C.
In the case of `CCOC(=O)C(=O)N1Cc2cc(OC)ccc2C(Cc2c(Cl)cncc2Cl)=N1` it was 140 to 142 °C; in that of `CNc1nc(-c2cccc(-c3cccc(-c4ccccc4)c3)c2)c2cc(OC)c(OC)cc2n1`, 193 to 195 °C.
The same measure for `CCOC(=O)c1cn(-c2ccccc2)nc1NC=O`: 135 to 136 °C; for `CCOC(=O)N1CCC(N(Cc2ccccc2)C(=S)Nc2ccccc2[N+](=O)[O-])CC1`: 140 °C; for `COc1ccc2c(c1)C(CC(=O)O)=C(C)C2=Cc1ccc(S(C)=O)cc1` (configuration not stated): 200 to 204 °C.
In the case of `CCOC(=O)OC1=C(c2c(C)cc(C)cc2C)C(=O)N(O)C12CCN(OC)CC2`, the melting point fell in the range of 154 to 155 °C.
In the case of `CC[C@@H](NC(=O)N1CC(=O)NCC(Cc2cc(Cl)ccc2OC)C1=O)C(=O)Nc1nnn[nH]1` (some centres not stated) it was 141 to 142 °C; in that of `CCNC(=O)c1cc(N(C)C)ccc1[Si](C)(C)C`, 141 to 143 °C; in that of `CN(Cc1cccc2c1C(=O)N(C1CCC(=O)NC1=O)C2=O)C(=O)c1ccco1` (configuration not stated), 184 to 186 °C.
In the case of `O=C(Nc1cccc([N+](=O)[O-])c1)C(=O)N1CCC(Cc2ccc(F)cc2)CC1` it was 135 to 138 °C; in that of `COC(=O)c1ccc(C(=O)N2CCN(c3ncccc3N)CC2)cc1`, 144 °C.
The same measure for `CS(=O)(=O)c1ccc(-c2sc(COc3cccc(Cl)c3)nc2-c2ccc(F)cc2)cc1`: 128 to 131 °C; for `O=C(Nc1cccnc1NCc1ccc(Cl)cc1)c1ccccc1Cl`: 117 to 119 °C.
With `COc1ccc(S(=O)(=O)n2c(=O)n(-c3ccccc3)c3cc(Cl)ccc32)cc1OC`, the melting point came to 154 °C.
Molecule `O=C(O)COc1cc(O)c2c(c1)NC1(CCCCC1)CC2=O` came in with a melting point of 177 to 178 °C.
In the case of `CCCN(CCC)C(=O)COc1nc(-c2ccccc2)nc(C)c1Cl` it was 90 to 91 °C.
The same measure for `CC[C@H](CO)Nc1nc(NCc2ccccc2)c2nnn(C(C)C)c2n1`: 115 to 118 °C.
In the case of `Cc1ccc(S(=O)(=O)OCC2COc3ccc4[nH]c(=O)[nH]c4c3O2)cc1` (configuration not stated) it was 202 to 204 °C; in that of `COc1cc2cc3c(Nc4ccc(Sc5nccn5C)c(Cl)c4)c(C#N)cnc3cc2cc1OCCCN1CCOCC1`, 230 to 235 °C.
Molecule `CC1(C2Cc3ccccc3O2)CCCCC1` (configuration not stated) showed a melting point of 60 to 63 °C.
In the case of `CCOC(=O)C=CCCc1cn(C(c2ccccc2)(c2ccccc2)c2ccccc2)cn1` it was 86 to 88 °C; in that of `Cc1oc(-c2ccccc2)nc1CCC(O)c1ccc(CCCC2OC(=O)NC2=O)cc1` (configuration not stated), 150 to 151 °C; in that of `N#Cc1ccc(-c2cc(-c3ccc(O)c(F)c3)nc3ccc(O)cc23)cc1`, 266 to 267 °C.
Turning to `BrCC=C1c2ccccc2C=Cc2ccccc21`, the melting point is 87.5 to 89.5 °C.
In the case of `Clc1cc(CCc2ccccn2)c2oc(-c3cn[nH]c3)nc2c1` it was 204 to 208 °C.
The same measure for `Cn1c(=O)c(-c2ccc(Cl)cc2Cl)cc2c3cc(C=O)ccc3n(C)c21`: 284 °C; for `CCOc1nn(-c2cc(C(F)(F)F)ccn2)cc1CCCOc1ccccc1CC(=O)O`: 121 to 122 °C.
The same measure for `COc1c(Br)c(-c2cc(C(C)C)n(C)n2)cc2oc(=O)c(C)c(C)c12`: 177 to 179 °C; for `CS(=O)(=O)c1ccc(CN2C(=O)C3(COc4cc5c(cc43)OCO5)c3ccccc32)o1` (configuration not stated): 177 to 179 °C.
`COC(=O)c1c(F)cc(OCCNC(=O)OCc2ccccc2)cc1F` registered a melting point of 95 to 97 °C.
`Cc1noc(NS(=O)(=O)c2ncccc2C(=O)Nc2ccccc2)c1C` gave a melting point of 199 to 200 °C.
In the case of `COC(=O)C=C1NC(C)(CO)COC1=O` (configuration not stated) it was 62 to 63 °C; in that of `CC1CC(Nc2nnc(-c3cccc(Oc4ccc(C(C)(C)C)cc4)c3)s2)CC(C)(C)C1` (configuration not stated), 166 to 167 °C; in that of `O=C1NCc2c1cc1ccc3c(c1c2-c1ccc(C(F)(F)F)cc1)OCO3`, 315 to 317 °C.
In the case of `CC1CC2(CC3CCC4C5CCC(=O)C5(C)CCC4C13C)OCCO2` (configuration not stated) it was 154 °C.
In the case of `CCOC(=O)c1c(CN(CC)CC)nc2sc3c(c2c1-c1ccc(OC)c(OC)c1)CCN(C(C)=O)C3` it was 72 to 75 °C.
Molecule `O=C(O)c1cc([N+](=O)[O-])c(F)c(F)c1F` came in with a melting point of 128 to 129 °C.
